Tests used:
[1] = test system: formalin-induced nociceptive behaviour, second (late) phase; test: Formalin test carried out on mice; type: in vivo
Description: Method III. Formalin Test Carried Out on Mice In the formalin test, the testing to determine the antinociceptive effect of the compounds according to the invention is carried out on male mice (NMRI, 20 to 30 g body weight, Iffa, Credo, Belgium). In the formalin test as described by D. Dubuisson et al., Pain 1977, 4, 161-174, a distinction is drawn between the first (early) phase (up to 10 minutes after the injection of formalin) and the second (late) phase (up to 60 minutes after the injection of formalin). The early phase, as an immediate reaction to the injection of formalin, is a model of acute pain, whereas the late phase is regarded as a model of persistent (chronic) pain (T. J. Coderre et al., Pain 1993, 52, 259-285). […] Subsequently, the nociceptive behaviour is continuously detected by observing the animals over a test period of three minutes in the second (late) phase of the formalin test (21 to 24 minutes after the injection of formalin). The pain behaviour is quantified by adding up the seconds over which the animals display licking and biting of the paw in question during the test period. […] Based on the quantification of the pain behaviour, the effect of the substance is determined in the formalin test as a percentage change relative to the corresponding control. […]

KCNQ2/3 channels = target: T1, KCNQ2/3 channels (Homo sapiens, UniProt O43525+O43526); test: Fluorescence assay using a voltage sensitive dye (fluorimetry); type: cell-based; conditions: CHO-K1 cells expressing KCNQ2/3 channels; for Emax: relative to retigabine = 100%, read-out: Fluorimetry % efficacy (retigabine = 100%)
T1 construct: expressed in transfected cells; host or cells: CHO-K1 cells, kept under selection antibiotics
Description: Pharmacological Experiments Method I. Fluorescence Assay Using a Voltage Sensitive Dye (Fluorimetry)
[…] CHO-K1 cells expressing KCNQ2/3 channels are cultivated adherently at 37° C., 5% CO2 and 95% humidity in cell culture bottles (e.g. 80 cm^2 TC flasks, Nunc) with DMEM-high glucose (Sigma Aldrich, D7777) including 10% FCS (PAN Biotech, e.g. 3302-P270521) or alternatively MEM Alpha Medium (1×, liquid, Invitrogen, #22571), 10% fetal calf serum (FCS) (Invitrogen, #10270-106, heat-inactivated) and the necessary selection antibiotics.
Before being sown out for the measurements, the cells are washed with 1×DPBS buffer Ca^2+/Mg^2+-free (e.g. Invitrogen, #14190-094) and detached from the bottom of the culture vessel by using Accutase (PAA Laboratories, #L11-007) (incubation with Accutase for 15 min at 37° C.). The cell number is determined using a CASY™ cell counter (TCC, Schärfe System). Depending on the optimal density for each individual cell line, 20,000-30,000 cells/well/100 μl are seeded onto 96-well Corning™ CellBIND™ assay plates (Flat Clear Bottom Black Polystyrene Microplates, #3340). Freshly seeded cells are then left to settle for one hour at room temperature, followed by incubation for 24 hours at 37° C., 5% CO2 and 95% humidity.
The voltage-sensitive fluorescent dye from the Membrane Potential Assay Kit (Red™ Bulk format part R8123 for FLIPR, MDS Analytical Technologies™) is prepared by dissolving the contents of one vessel Membrane Potential Assay Kit Red Component A in 200 ml of extracellular buffer (ES buffer, 120 mM NaCl, 1 mM KCl, 10 mM HEPES, 2 mM CaCl2, 2 mM MgCl2, 10 mM glucose; pH 7.4). After removal of the nutrient medium, the cells are washed once with 200 μl of ES buffer, then loaded for 45 min at room temperature in 100 μl of dye solution in the dark.
Fluorescence measurements are carried out in a BMG Labtech FLUOstar™, BMG Labtech NOVOstar™ or BMG Labtech POLARstar™ instrument (525 nm excitation, 560 nm emission, Bottom Read mode). After incubation with the dye, 50 μl of the test substances in the desired concentrations, or 50 μl of ES buffer for control purposes, are applied to the wells of the assay plate and incubated for 30 min at room temperature while being shielded from light. The fluorescence intensity of the dye is then measured for 5 min and the fluorescence value F1 of each well is thus determined at a given, constant time. 15 μl of a KCl solution are then added to each well (final concentration of potassium ions 92 mM). The change in fluorescence intensity is subsequently monitored until all the relevant values have been obtained (mainly 5-30 min). At a given time post KCl application, a fluorescence value F2 is determined, in this case at the time of the fluorescence peak.
For calculation, the fluorescence intensity F2 is corrected for the fluorescence intensity F1, and the activity (ΔF/F) of the target compound on the potassium channel is determined as follows:
In order to determine whether a substance has agonistic activity,
[formula] can be related to
[formula] of control wells.
[formula] is determined by adding to the well only the buffer solution instead of the test substance, determining the value F1K of the fluorescence intensity, adding the potassium ions as described above, and measuring a value F2K of the fluorescence intensity. F2K and F1K are then calculated as follows: […]
A substance has an agonistic activity on the potassium channel if
[formula] is greater than
Independently of the comparison of
[formula] it is possible to conclude that a target compound has agonistic activity if
[formula] increases dose dependently.
Calculations of EC50 and IC50 values are carried out with the aid of ‘Prism v4.0’ software (GraphPad Software™).

[2] = test system: acute noxious thermal stimulus (tail withdrawal reflex); test: Low-intensity tail flick test (rat); type: in vivo; conditions: dose 21.5 mg/kg
Description: Method II. Low-Intensity Tail Flick Test (Rat) In the low-intensity tail flick test, the determination of the antinociceptive effect of the compounds according to the invention towards an acute noxious thermal stimulus is carried out by measuring the withdrawal reflex of the rat tail (tail flick) in response to a radiant heat beam (analgesia meter; model 2011 of the company Rhema Labortechnik, Hofheim, Germany) according to the method described by D'Amour and Smith (J. Pharm. Exp. Ther. 72, 74 79 (1941). To this end, the rats were placed in a plexiglas restrainer, and a low-intensity radiant heat beam (48° C.) was focused onto the dorsal surface of the tail root. […] Before administration of a compound according to the invention, the animals were pre-tested twice in the course of five minutes and the mean of these measurements was calculated as the pre-test mean. The antinociceptive effect was determined at 20, 40 and 60 min after peroral compound administration. The antinociceptive effect was calculated based on the increase in the tail withdrawal latency according to the following formula and is expressed as percentage of the maximum possible effect (MPE [%]): MPE=[(T1−T0)/(T2−T0)]*100 In this, T0 is the control latency time before and T1 the latency time after administration of the compound, T2 is the cutoff time and MPE is the maximum possible effect. […]

## CCNc1nc2cc(C(F)(F)F)ccc2c(C)c1C(=O)NCc1cccc(F)c1 [Example 1, 2-ethylamino-N-[(3-fluorophenyl)-methyl]-4-methyl-7-(trifluoromethyl)-quinoline-3-carboxylic acid amide]
[1]; dose 4.64 mg/kg
  Formalin test, mice, intravenous, MPE (dose): 71% (4.64)
KCNQ2/3 channels
  EC50: 252 nM
  Emax: 141%
[2]
  Low intensity tail flick, rat, peroral, MPE (dose): 44% (21.5)

## Cc1c(C(=O)NCc2cccc(F)c2)c(N2CCCC2)nc2cc(C(F)(F)F)ccc12 [Example 2, N-[(3-fluorophenyl)-methyl]-4-methyl-2-pyrrolidin-1-yl-7-(trifluoromethyl)-quinoline-3-carboxylic acid amide]
KCNQ2/3 channels
  EC50: 801 nM
  Emax: 186%

## Cc1c(C(=O)NCc2ccc(F)cc2)c(N(C)C)nc2cc(C(F)(F)F)ccc12 [Example 3, 2-dimethylamino-N-[(4-fluorophenyl)-methyl]-4-methyl-7-(trifluoromethyl)-quinoline-3-carboxylic acid amide]
KCNQ2/3 channels
  EC50: 350 nM
  Emax: 105%

## Cc1c(C(=O)NCc2cccc(F)c2)c(N(C)C)nc2cc(C(F)(F)F)ccc12 [Example 4, 2-dimethylamino-N-[(3-fluorophenyl)-methyl]-4-methyl-7-(trifluoromethyl)-quinoline-3-carboxylic acid amide]
KCNQ2/3 channels
  EC50: 510 nM
  Emax: 140%

## CCN(CC)c1nc2cc(C(F)(F)F)ccc2c(C)c1C(=O)NCc1ccc(F)cc1 [Example 5, 2-diethylamino-N-[(4-fluorophenyl)-methyl]-4-methyl-7-(trifluoromethyl)-quinoline-3-carboxylic acid amide]
KCNQ2/3 channels
  EC50: 721 nM
  Emax: 205%

## Cc1c(C(=O)NCc2ccc(F)cc2)c(N2CCCC2)nc2cc(C(F)(F)F)ccc12 [Example 6, N-[(4-fluorophenyl)-methyl]-4-methyl-2-pyrrolidin-1-yl-7-(trifluoromethyl)-quinoline-3-carboxylic acid amide]
KCNQ2/3 channels
  EC50: 593 nM
  Emax: 204%

## CCN(CC)c1nc2cc(C(F)(F)F)ccc2c(C)c1C(=O)NCc1cccc(F)c1 [Example 7, 2-diethylamino-N-[(3-fluorophenyl)-methyl]-4-methyl-7-(trifluoromethyl)-quinoline-3-carboxylic acid amide]
[1]; dose 10.0 mg/kg
  Formalin test, mice, intravenous, MPE (dose): 65% (10.0)
KCNQ2/3 channels
  EC50: 466 nM
  Emax: 199%

## CCNc1nc2cc(C(F)(F)F)ccc2c(C)c1C(=O)NCc1ccc(F)cc1 [Example 8, 2-ethylamino-N-[(4-fluorophenyl)-methyl]-4-methyl-7-(trifluoromethyl)-quinoline-3-carboxylic acid amide]
KCNQ2/3 channels
  EC50: 307 nM
  Emax: 157%

## CNc1nc2cc(C(F)(F)F)ccc2c(C)c1C(=O)NCc1cccc(F)c1 [Example 9, N-[(3-fluorophenyl)-methyl]-4-methyl-2-methylamino-7-(trifluoromethyl)-quinoline-3-carboxylic acid amide]
KCNQ2/3 channels
  EC50: 403 nM
  Emax: 111%

## Cc1c(C(=O)NCc2cccc(F)c2)c(N2CCOCC2)nc2cc(C(F)(F)F)ccc12 [Example 10, N-[(3-Fluorophenyl)-methyl]-4-methyl-2-morpholin-4-yl-7-(trifluoromethyl)-quinoline-3-carboxylic acid amide]
KCNQ2/3 channels
  EC50: 1070 nM
  Emax: 181%

— patent publication US8470852B2, “Substituted 2-amino-quinoline-3-carboxamides as KCNQ2/3 modulators” (Gruenenthal GmbH, priority 2010, dated 2013)
